Measured values from US20080096894A1, “Anti-Bacterial Compounds” (ASTON UNIVERSITY, priority 2005, published 2008).
Values after ≈ are worked out from the molar mass of the structure shown.

Experiments:
Assay in all cases: MIC, agar dilution, multipoint inoculator
S. aureus = type: cell-based, Staphylococcus aureus; details: upper value of MIC reading
In short: (§1)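 Read-out is the MIC by agar dilution. Plates contain Mueller Hinton agar; bacteria are applied via multipoint inoculator, 10^4 CFU per spot.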

S. epidemisis = type: cell-based, Staphylococcus epidermidis; details: upper value of MIC reading
In short: as §1

K. pneumoniae = type: cell-based, Klebsiella pneumoniae; details: K. pneumoniae 327; upper value of MIC reading
Experimental: (§2) This activity was measured using a multipoint inoculator method as follows. The MIC for each compound was measured using an agar dilution method (Onda, H., et al., Int. J. Antimicrob. Agents. 18, 263 (2001)) (Mueller Hinton agar) by means of a multipoint inoculator delivering 10^4 colony forming units per spot.

P. auriginosa = type: cell-based, Pseudomonas aeruginosa; details: P. auriginosa NCTC 6749; upper value of MIC reading
Experimental: as §2

MRSA = type: cell-based, methicillin-resistant Staphylococcus aureus; details: for MIC: upper value of MIC reading, in µg/mL; for MRSA MIC range: panel of ten MRSA strains (clinical isolates)
In short: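 Agar dilution MIC on Mueller Hinton agar, multipoint inoculator delivering 10^4 colony forming units per spot. MRSA values are ranges across ten clinical MRSA strains; S. aureus NCTC 6571 as reference strain.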

S. maltophilia = type: cell-based; details: S. maltophilia NCTC 10257; upper value of MIC reading
In short: as §1

E. faecalis = type: cell-based; details: upper value of MIC reading
In short: as §1

S. haemolyticus = type: cell-based; details: S. haemolyticus Isolate 1; upper value of MIC reading
In short: as §1

S. aboni = type: cell-based; details: S. aboni NCTC 6017; upper value of MIC reading
In short: as §1

B. bronchiseptica = type: cell-based; details: B. bronchiseptica NCTC 8344; upper value of MIC reading
In short: as §1

E. cloacae = type: cell-based, Enterobacter cloacae; details: E. cloacae NCTC 11582; upper value of MIC reading
Experimental: as §2

S. marcesens = type: cell-based, Serratia marcescens; details: S. marcesens 4444; upper value of MIC reading
Experimental: as §2

E. faecium = type: cell-based, Enterococcus faecium; details: upper value of MIC reading
In short: as §1

Compound	MIC (S. aureus; S. aureus Cowan 1) [µg/mL]	MIC (S. aureus; S. aureus NCTC 6571) [µg/mL]	MIC (S. aureus; S. aureus NCTC 10788) [µg/mL]	MIC (S. epidemisis; S. epidemisis Isolate 1) [µg/mL]	MIC (S. epidemisis; S. epidemisis NCTC 11047) [µg/mL]	MIC (K. pneumoniae) [µg/mL]	MIC (P. auriginosa) [µg/mL]	MIC (MRSA; MRSA Isolate 1)	MIC (MRSA; MRSA Isolate 2)	MIC (MRSA; MRSA Isolate 3)	MIC (MRSA; MRSA Isolate 4)	MIC (MRSA; MRSA Isolate 5)	MIC (MRSA; MRSA Isolate 6)	MIC (MRSA; MRSA Isolate 7)	MIC (MRSA; MRSA Isolate 8)	MIC (MRSA; MRSA Isolate 9)	MIC (MRSA; MRSA Isolate 10)	MIC (S. maltophilia) [µg/mL]	MIC (E. faecalis; E. faecalis Isolate 5) [µg/mL]	MIC (S. aboni) [µg/mL]	other results
NC(=NN=Cc1c(O)ccc2ccccc12)c1cccnc1 [Compound 3PYdb]	256 (≈ 882 µM)	256 (≈ 882 µM)	256 (≈ 882 µM)	256 (≈ 882 µM)	256 (≈ 882 µM)	256 (≈ 882 µM)	256 (≈ 882 µM)	256	256	256	256	256	256	256	256	256	256	266 (≈ 916 µM)	256 (≈ 882 µM)	32 (≈ 110 µM)	MRSA MIC range (MRSA): 128 to 256 µg/mL; MIC (E. faecalis; E. faecalis Isolate 2): 256 µg/mL (≈ 882 µM); MIC (S. haemolyticus): 256 µg/mL (≈ 882 µM); MIC (B. bronchiseptica): 256 µg/mL (≈ 882 µM); MIC (E. cloacae): 256 µg/mL (≈ 882 µM)
NC(=NN=Cc1ccc(O)c(O)c1)c1ccc2ccccc2n1 [QNca]	128 (≈ 418 µM)	128 (≈ 418 µM)	128 (≈ 418 µM)	64 (≈ 209 µM)	64 (≈ 209 µM)	256 (≈ 836 µM)	256 (≈ 836 µM)	128	128	128	128	128	128	128	128	128	128	256 (≈ 836 µM)	256 (≈ 836 µM)	256 (≈ 836 µM)	MRSA MIC range (MRSA): 64 to 128 µg/mL; MIC (S. marcesens): 256 µg/mL (≈ 836 µM); MIC (E. faecium; E. faecium ACTCC 10541): 256 µg/mL (≈ 836 µM); MIC (E. faecium; E. faecium NCTC 7171): 256 µg/mL (≈ 836 µM); MIC (E. faecalis; E. faecalis EBH1): 256 µg/mL (≈ 836 µM); MIC (E. faecalis; E. faecalis Isolate 1): 256 µg/mL (≈ 836 µM); MIC (E. faecalis; E. faecalis Isolate 2): 256 µg/mL (≈ 836 µM); MIC (E. faecalis; E. faecalis Isolate 3): 256 µg/mL (≈ 836 µM); MIC (E. faecalis; E. faecalis Isolate 4): 256 µg/mL (≈ 836 µM); MIC (E. faecalis; E. faecalis NCTC 5957): 256 µg/mL (≈ 836 µM); MIC (S. haemolyticus): 128 µg/mL (≈ 418 µM); MIC (E. cloacae): 32 µg/mL (≈ 104 µM)
O=Cc1cc([N+](=O)[O-])ccc1O [cj]	16 (≈ 95.7 µM)	4 (≈ 23.9 µM)	2 (≈ 12 µM)	2 (≈ 12 µM)	2 (≈ 12 µM)	256 (≈ 1530 µM)	256 (≈ 1530 µM)	2	4	2	2	2	4	4	4	4	4	256 (≈ 1530 µM)	256 (≈ 1530 µM)	1 (≈ 5.98 µM)	MIC (E. faecalis; E. faecalis Isolate 1): 256 µg/mL (≈ 1530 µM); MIC (B. bronchiseptica): 256 µg/mL (≈ 1530 µM); MIC (E. cloacae): 256 µg/mL (≈ 1530 µM)
